# Test results published in ChEMBL document CHEMBL3132769, “Fragment growing to retain or alter the selectivity of anchored kinase hinge-binding fragments” (Medchemcomm, 2014).
# How the values were obtained:
# [1] = molecular target: Ribosomal protein S6 kinase alpha-3 (Homo sapiens) (UniProt P51812); experiment: Inhibition of human full length RSK2 expressed in baculovirus assessed as substrate phosphorylation using fluorescence-labelled peptides as substrate at 0.2 uM after 90 mins by microfluidic peptide phosphorylation assay
# Sequence of Ribosomal protein S6 kinase alpha-3 (Homo sapiens) (P51812 whole entry, the tested form may be a part): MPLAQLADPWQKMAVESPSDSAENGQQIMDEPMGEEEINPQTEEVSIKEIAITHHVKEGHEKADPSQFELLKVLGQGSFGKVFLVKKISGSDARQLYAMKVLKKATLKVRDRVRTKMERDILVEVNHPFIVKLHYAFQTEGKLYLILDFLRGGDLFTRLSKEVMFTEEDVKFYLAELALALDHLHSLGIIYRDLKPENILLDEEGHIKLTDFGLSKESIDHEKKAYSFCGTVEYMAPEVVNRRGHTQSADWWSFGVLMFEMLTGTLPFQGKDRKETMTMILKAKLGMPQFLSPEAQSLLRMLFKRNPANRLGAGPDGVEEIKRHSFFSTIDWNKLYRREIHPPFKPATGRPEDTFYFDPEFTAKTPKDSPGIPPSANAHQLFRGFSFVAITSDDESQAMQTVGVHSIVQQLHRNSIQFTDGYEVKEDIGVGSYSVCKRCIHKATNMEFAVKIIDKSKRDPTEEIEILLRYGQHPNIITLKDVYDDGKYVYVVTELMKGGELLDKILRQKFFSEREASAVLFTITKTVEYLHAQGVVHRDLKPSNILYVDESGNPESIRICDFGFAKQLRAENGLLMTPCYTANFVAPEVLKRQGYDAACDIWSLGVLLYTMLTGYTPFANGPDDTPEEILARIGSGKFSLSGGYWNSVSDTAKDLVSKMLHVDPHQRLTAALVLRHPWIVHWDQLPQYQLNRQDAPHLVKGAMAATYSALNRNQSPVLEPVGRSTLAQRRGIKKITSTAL
# [2] = molecular target: T1, Serine/threonine-protein kinase BRSK2 (Homo sapiens) (UniProt Q8IWQ3); experiment: Inhibition of human truncated BRSK2 expressed in baculovirus assessed as substrate phosphorylation using fluorescence-labelled peptides as substrate at 420 uM after 90 mins by microfluidic peptide phosphorylation assay
# T1 sequence (whole entry): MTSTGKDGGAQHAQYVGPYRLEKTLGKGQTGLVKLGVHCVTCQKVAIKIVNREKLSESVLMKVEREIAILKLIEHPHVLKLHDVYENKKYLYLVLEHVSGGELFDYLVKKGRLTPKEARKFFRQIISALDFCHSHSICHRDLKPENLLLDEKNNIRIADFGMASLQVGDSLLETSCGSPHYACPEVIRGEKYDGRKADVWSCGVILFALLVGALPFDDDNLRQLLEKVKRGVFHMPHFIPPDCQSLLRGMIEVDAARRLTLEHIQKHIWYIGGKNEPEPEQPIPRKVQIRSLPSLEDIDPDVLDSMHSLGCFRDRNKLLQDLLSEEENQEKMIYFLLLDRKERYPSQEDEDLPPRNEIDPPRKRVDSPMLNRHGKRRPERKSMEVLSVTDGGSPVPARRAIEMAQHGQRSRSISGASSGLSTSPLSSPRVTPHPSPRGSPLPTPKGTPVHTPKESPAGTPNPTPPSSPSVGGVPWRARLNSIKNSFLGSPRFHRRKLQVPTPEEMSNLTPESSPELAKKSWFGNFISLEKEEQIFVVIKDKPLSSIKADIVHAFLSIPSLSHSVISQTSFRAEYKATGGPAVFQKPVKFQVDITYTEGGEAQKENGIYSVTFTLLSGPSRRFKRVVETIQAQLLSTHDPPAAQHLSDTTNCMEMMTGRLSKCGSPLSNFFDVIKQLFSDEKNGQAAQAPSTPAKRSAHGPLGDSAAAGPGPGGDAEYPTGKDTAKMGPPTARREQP
# [3] = molecular target: Fibroblast growth factor receptor 4 (Homo sapiens) (UniProt P22455); experiment: Inhibition of human FGFR4 catalytic domain expressed in baculovirus assessed as substrate phosphorylation using fluorescence-labelled peptides as substrate at 95 uM after 90 mins by microfluidic peptide phosphorylation assay
# Sequence of Fibroblast growth factor receptor 4 (Homo sapiens) (P22455 22-802 limits assumed): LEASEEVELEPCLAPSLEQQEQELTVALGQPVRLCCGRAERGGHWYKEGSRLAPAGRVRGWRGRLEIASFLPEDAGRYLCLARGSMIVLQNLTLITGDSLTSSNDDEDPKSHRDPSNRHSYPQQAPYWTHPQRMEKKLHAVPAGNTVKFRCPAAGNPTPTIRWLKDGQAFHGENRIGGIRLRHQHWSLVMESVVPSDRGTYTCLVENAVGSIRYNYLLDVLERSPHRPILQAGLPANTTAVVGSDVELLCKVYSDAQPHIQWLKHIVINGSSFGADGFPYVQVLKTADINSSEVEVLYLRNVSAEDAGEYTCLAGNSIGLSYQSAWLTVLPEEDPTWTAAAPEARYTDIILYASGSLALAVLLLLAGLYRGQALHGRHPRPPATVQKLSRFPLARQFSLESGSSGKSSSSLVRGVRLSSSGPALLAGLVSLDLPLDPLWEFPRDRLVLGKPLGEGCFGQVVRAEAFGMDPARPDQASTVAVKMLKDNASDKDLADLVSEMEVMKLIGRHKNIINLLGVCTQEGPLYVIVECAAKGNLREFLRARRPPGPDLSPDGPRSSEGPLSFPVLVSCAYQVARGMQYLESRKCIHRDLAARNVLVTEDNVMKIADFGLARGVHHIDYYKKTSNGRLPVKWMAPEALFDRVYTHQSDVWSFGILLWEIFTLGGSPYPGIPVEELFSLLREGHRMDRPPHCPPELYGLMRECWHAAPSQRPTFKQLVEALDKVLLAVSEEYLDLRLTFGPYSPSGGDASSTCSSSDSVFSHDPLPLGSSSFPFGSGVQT
# [4] = molecular target: T2, Interleukin-1 receptor-associated kinase 4 (Homo sapiens) (UniProt Q9NWZ3); experiment: Inhibition of human IRAK4 catalytic domain expressed in baculovirus assessed as substrate phosphorylation using fluorescence-labelled peptides as substrate at […] after 90 mins by microfluidic peptide phosphorylation assay
# T2 sequence (whole entry): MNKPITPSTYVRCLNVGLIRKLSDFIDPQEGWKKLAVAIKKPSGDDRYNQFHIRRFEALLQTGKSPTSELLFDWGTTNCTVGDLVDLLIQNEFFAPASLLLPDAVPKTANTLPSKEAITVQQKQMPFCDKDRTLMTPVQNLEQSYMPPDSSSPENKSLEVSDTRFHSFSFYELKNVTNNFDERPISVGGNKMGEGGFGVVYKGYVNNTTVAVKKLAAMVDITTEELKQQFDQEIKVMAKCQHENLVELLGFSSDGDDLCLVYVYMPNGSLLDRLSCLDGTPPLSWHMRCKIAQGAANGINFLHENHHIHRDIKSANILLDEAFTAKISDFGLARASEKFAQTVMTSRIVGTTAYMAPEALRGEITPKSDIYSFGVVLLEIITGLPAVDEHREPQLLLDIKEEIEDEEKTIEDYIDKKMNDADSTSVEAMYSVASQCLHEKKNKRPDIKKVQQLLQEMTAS
# [5] = system: Fibroblast growth factor receptor 2 (Homo sapiens), P21802 [N549H]; experiment: Inhibition of human FGFR2 N549H mutant catalytic domain expressed in baculovirus assessed as substrate phosphorylation using fluorescence-labelled peptides as substrate at 0.06 uM after 90 mins by microfluidic peptide phosphorylation assay
# Sequence of Fibroblast growth factor receptor 2 (Homo sapiens), P21802 [N549H] (P21802 whole entry N549H, the tested form may be a part): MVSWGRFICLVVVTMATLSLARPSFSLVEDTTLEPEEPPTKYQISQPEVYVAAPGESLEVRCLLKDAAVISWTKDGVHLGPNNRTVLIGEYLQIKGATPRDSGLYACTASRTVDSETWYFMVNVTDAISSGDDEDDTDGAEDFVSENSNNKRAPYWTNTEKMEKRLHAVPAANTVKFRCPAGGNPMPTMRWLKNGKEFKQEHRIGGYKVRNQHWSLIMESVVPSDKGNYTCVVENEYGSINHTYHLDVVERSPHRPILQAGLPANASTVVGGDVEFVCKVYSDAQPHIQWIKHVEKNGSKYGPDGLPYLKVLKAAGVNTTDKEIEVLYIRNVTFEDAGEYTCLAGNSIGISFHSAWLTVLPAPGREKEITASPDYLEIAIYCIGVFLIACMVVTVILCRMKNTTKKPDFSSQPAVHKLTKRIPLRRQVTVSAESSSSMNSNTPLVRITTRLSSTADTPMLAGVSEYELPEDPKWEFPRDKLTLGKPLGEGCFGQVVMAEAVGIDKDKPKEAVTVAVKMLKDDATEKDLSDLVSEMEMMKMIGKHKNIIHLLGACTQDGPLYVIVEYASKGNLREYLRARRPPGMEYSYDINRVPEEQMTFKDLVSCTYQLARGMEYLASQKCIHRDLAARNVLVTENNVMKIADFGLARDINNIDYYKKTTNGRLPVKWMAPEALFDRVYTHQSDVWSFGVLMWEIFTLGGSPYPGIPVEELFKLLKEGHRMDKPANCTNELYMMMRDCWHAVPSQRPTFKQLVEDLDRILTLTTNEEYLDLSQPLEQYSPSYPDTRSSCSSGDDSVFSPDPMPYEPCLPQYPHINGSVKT
# [6] = molecular target: T3, MAP kinase-activated protein kinase 5 (Homo sapiens) (UniProt Q8IW41); experiment: Inhibition of human full length PRAK expressed in baculovirus assessed as substrate phosphorylation using fluorescence-labelled peptides as substrate at 70 uM after 90 mins by microfluidic peptide phosphorylation assay
# T3 sequence (whole entry): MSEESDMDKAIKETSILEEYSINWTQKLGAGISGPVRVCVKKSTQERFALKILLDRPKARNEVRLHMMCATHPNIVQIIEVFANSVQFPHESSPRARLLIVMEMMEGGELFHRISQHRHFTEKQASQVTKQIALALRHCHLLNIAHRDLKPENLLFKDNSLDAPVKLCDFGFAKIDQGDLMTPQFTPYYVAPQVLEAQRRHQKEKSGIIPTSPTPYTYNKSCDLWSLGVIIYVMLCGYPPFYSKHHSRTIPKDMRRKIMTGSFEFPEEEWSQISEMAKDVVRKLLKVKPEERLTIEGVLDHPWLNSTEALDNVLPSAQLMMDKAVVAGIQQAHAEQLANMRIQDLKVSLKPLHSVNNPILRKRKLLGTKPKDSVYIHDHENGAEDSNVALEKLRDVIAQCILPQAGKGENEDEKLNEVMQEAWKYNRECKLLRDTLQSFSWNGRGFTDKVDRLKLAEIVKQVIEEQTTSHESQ
# [7] = molecular target: Casein kinase I isoform delta (Homo sapiens) (UniProt P48730); experiment: Inhibition of human CK1D catalytic domain expressed in Escherichia coli cell assessed as substrate phosphorylation using fluorescence-labelled peptides as substrate at 1000 uM after 90 mins by microfluidic peptide phosphorylation assay
# Sequence of Casein kinase I isoform delta (Homo sapiens) (P48730 whole entry, looked up, the tested form may be a part, canonical isoform): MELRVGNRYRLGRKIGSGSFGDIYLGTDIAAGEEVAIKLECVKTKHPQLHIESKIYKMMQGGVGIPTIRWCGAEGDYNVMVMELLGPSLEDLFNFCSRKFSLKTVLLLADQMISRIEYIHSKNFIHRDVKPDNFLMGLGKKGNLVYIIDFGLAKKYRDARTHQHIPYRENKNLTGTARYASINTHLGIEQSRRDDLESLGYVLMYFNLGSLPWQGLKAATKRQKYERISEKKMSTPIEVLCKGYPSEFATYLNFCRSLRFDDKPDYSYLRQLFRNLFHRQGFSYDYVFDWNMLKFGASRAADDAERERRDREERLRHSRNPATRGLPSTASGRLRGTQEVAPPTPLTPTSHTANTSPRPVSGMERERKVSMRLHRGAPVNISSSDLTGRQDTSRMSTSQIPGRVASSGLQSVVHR
compound,measurement,setting,value
Clc1ccc(C2(c3ccc(-c4ncnc5[nH]cnc45)cc3)CCNCC2)cc1,inhibition,[1],55%
c1nc(N2CCOCC2)c2nc[nH]c2n1,inhibition,[2],60.5%
NCCc1ccc(-c2ncnc3[nH]cnc23)cc1,inhibition,[3],10%
COC(=O)c1cnc(Nc2cnc(C#N)cn2)cc1NCC1CCNCC1,inhibition,[4],5.5%
NC1(Cc2ccc(Cl)cc2)CCN(c2ncnc3[nH]ccc23)CC1,inhibition,[5],5%
CNCc1ccc(-c2ncnc3[nH]cnc23)cc1,inhibition,[6],20.5%
c1cnc2[nH]ccc2c1,inhibition,[7],94.5%
